# Assays:
# Assay type in all cases: cell-based, human
# [1] = test system: PPRE luciferase; test: PPRE luciferase activation, transient transfection reporter assay (test (a)); conditions: for Test (a) activation of PPRE luciferase by at least 100%: positive in 184B5, 184B5/HER, HCA7, HCT116, SKBR3 and BT474 cells, 24 h treatment
# Source text: We turn now to criterion (a), that is activation of PPRE luciferase by at least 100%. PPRE-luciferase refers to a DNA construct containing the peroxisome proliferator activated receptor (PPAR) binding element joined to luciferase. Cells are transfected with PPRE-luciferase DNA. Ligands of PPAR induce luciferase activity. The ability of a test compound to stimulate PPRE-luciferase signifies that the test compound activates PPAR-mediated gene transcription. PPRE means peroxisome proliferator response element and the method by which PPRE-luciferase is constructed is described in Schoonjans, K., et al, J. Biol. Chem. 270, No. 33, 19269-19276 (Aug. 18, 1995). Use of PPRE-luciferase in a transient transfection to measure increase in promoter activity is disclosed in Subbaramaiah, K. et al, J. Biol. Chem. 270, No. 15, 12440-12448 (Apr. 13, […]).
# For each well, 1.8 μg of PPRE3-tk-luciferase construct plasmid DNA (described in Forman, B. M., et al, Cell 83, 803 (1995)) plus 0.2 μg of pSV-β-galactosidase were introduced into cells using 8 μg of LipofectAMINE as per the manufacturer's instructions (Invitrogen, CA). After 7 h of incubation, the medium was replaced with basal medium. After transfection, cells were treated with test compound for 24 h. Reporter activities which include luciferase and β-galactosidase were measured in cellular extract 24 h later. Six wells were used for each of the conditions. Luciferase activity represents data that have been normalized with β-galactosidase.
# The luciferase assay was performed as per the BD Pharmingen assay reagents. The Enhanced Luciferase Assay Kit provides a firefly luciferase substrate formulation (Substrates A and B) and cell lysis buffer intended for use in measuring luciferase expressed by transfected cells. Media from cell culture plates was removed and rinsed twice with phosphate buffered saline. Enough 1X cell lysis buffer was added to cover cells and incubated at room temperature for 15-20 min. Cells were dislodged by scraping and transferred to microcentrifuge tubes. […] 20-100 μl cell extract was placed into an assay cuvette. One automatic injector type luminometer is used for assay. Manually 100 μl of Substrate A was added to the assay cuvette and automatically 100 μl of Substrate B was injected. Measurements were performed using a luminometer, for a measurement time of 10 seconds.
# The β-galactosidase assay was performed as follows:
# 50 μl of cell lysate from above was incubated with 50 μl of o-nitrophenyl-β-D-galactoside (ONPG; 4 mg/mL) in Z buffer, (Na2HPO4.7H2O (0.06M), NaH2PO4.H2O (0.04M), 1M KCl (0.01M), 1M MgSO4 (0.001M), β-mercaptoethanol (BME) (0.05M) pH 7.0). The reaction was stopped after sufficient yellow color has developed. The yellow color developed is measured at A420 […].
# [2] = test system: Nrf-2; test: Western and Northern blotting for expression of Nrf-2 (test (g)); conditions: positive in 184B5, 184B5/HER, HCA7, HCT116, SKBR3, BT474 and CaSki cells
# Description: We turn now to criterion (g), i.e. at least 50% increase in expression of Nrf-2. […] 13, 2001).
# Western blotting and Northern blotting techniques were used to evaluate the expression of Nrf-2. The expression of Nrf-2 was evaluated in HCA7, HCT116, SKBR3, CaSki, 184B5/HER, 184B5 and BT474 cells. 5×10^6cells were used to treat either vehicle alone or the test compound. The Western blotting analysis was performed as described above except anti-Nrf-2 antibody was used to probe the blot. The antibody was obtained from Santa Cruz Biotechnology, Inc. CA. Northern blotting for Nrf-2 was performed as described above and cDNA for Nrf-2 as described in Gong, P., et al., J.Biol Chem 20; 276:27018-27025 (2001) was used as a probe.
# [3] = test system: HER-2/neu; test: Western blotting for expression of HER-2/neu (test (b)); conditions: positive in 184B5/HER, BT474 and SKBR3 cells; 24 h; Western blot
# Source text: We turn now to the criterion (b), that is at least 50% decrease in level of or 50% downregulation of expression of Class I family of receptors tyrosine kinase. The Class I family of receptors tyrosine kinase is described in Reese, M. D., et al Stem Cells 15, pages 1-8 (1997), the whole of which in incorporated herein by reference. Members of the family include HER-2/neu, HER-3, HER-4 and epidermal growth factor receptor (EGFR) and are single-chain membrane spanning proteins which have significant homology to one another including about 80% amino acid identity in the tyrosine kinase domain.
# HER-2/neu (erbB-2) gene product is a 185-kDA transmembrane receptor tyrosine kinase that is described in some detail in said Reese et al publication and overexpression thereof has been associated with tumor growth in several kinds of cancer.
# To evaluate the expression of Class I family of receptors tyrosine kinase (EGFR, HER-2/neu), Western blotting can be performed. Antibodies for EGFR and HER-2/neu can be obtained from Santa Cruz Biotechnology, Inc.
# Expression of EGFR (performed in 184B5, 184B5/HER, 1483, LNCaP, HeLa and CaSki cells)and HER-2/neu (performed in 184B5/HER, SKBR3 and BT474 cells) was assessed in cells after treatment with test compound for 24 hours. 5×10^6 cells were used for the treatment. Western blotting technique was used to assess the expression levels in cells treated with the test compound compared to vehicle alone. Western blotting was carried out as follows:
# Cell lysates were prepared by treating cells with lysis buffer (150 mM NaCl, 100 mM Tris (pH 8.0), 1% Tween 20, 50 mM diethyldithiocarbamate, 1 mM EDTA, 1 mM phenylmethylsulfonyl fluoride, 10 μg/ml aprotinin, 10 μg/ml trypsin inhibitor and 10 μg/ml leupeptin). Lysates were sonicated for 20 s on ice and centrifuged at 10,000×g for 10 min to sediment the particulate material. The protein concentration of the supernatant was measured by the method of Lowry, O. H., et al., J. Biol. Chem. 193, 265-275 (195 1). SDS/PAGE was performed under reducing conditions on 10% polyacrylamide gels as described by Laemmli, U.K., Nature (Lond.) 227, 680-685 (1970). The resolved proteins were transferred onto nitrocellulose sheets as detailed by Towbin, H. et al., Proc. Natl. Acad. Sci. USA 76, 4350-4354 (1979). The nitrocellulose membrane was then incubated with anti-EGFR antiserum or anti-HER-2/neu antiserum. Secondary antibody to IgG conjugated to horseradish peroxidase was used. The various antisera were purchased from Santa Cruz Biotechnology, Inc., CA. The blots were probed with the Renaissance Western blot detection system according to the manufacturer's instructions (PerkinElmer Life Sciences, Boston, Mass.).
SMILES,Test (a) activation of PPRE luciferase by at least 100% [1],Test (g) at least 50% increase in expression of Nrf-2 [2],Test (b) HER-2/neu: at least 50% decrease in level of or 50% downregulation of expression [3],"activation of the promoter (PPRE-luciferase) ([1]; 184B5 cells, 24 hours, highest concentration)"
"CS(=O)(=O)c1ccc(-n2nc(C(F)(F)F)cc2-c2ccc(F)cc2)cc1 [SC-58125, 4-[5-(4-fluorophenyl)-3-(trifluoromethyl)-1H-pyrazol-1-yl]benzenemethylsulfone]","+ (A plus sign in the table indicates a positive result, that is meeting the test for each cell line as indicated above as providing a positive result)","+ (A plus sign in the table indicates a positive result, that is meeting the test for each cell line as indicated above as providing a positive result)","+ (A plus sign in the table indicates a positive result, that is meeting the test for each cell line as indicated above as providing a positive result)",
"CCCCCCCOC(=O)Cc1c(C)n(C(=O)c2ccc(Cl)cc2)c2ccc(OC)cc12 [Indomethacin Analog 1, indomethacin heptyl ester]","+ (A plus sign in the table indicates a positive result, that is meeting the test for each cell line as indicated above as providing a positive result)","+ (A plus sign in the table indicates a positive result, that is meeting the test for each cell line as indicated above as providing a positive result)","+ (A plus sign in the table indicates a positive result, that is meeting the test for each cell line as indicated above as providing a positive result)",
"COc1ccc(OC(=O)Cc2c(C)n(C(=O)c3ccc(Cl)cc3)c3ccc(OC)cc23)cc1 [Indomethacin Analog 3, 1-(p-chlorobenzoyl)-5-methoxy-2-methyl-1H-indole-3-acetic acid, 4-methoxyphenyl ester]","+ (A plus sign in the table indicates a positive result, that is meeting the test for each cell line as indicated above as providing a positive result)","+ (A plus sign in the table indicates a positive result, that is meeting the test for each cell line as indicated above as providing a positive result)","+ (A plus sign in the table indicates a positive result, that is meeting the test for each cell line as indicated above as providing a positive result)",
"NS(=O)(=O)c1ccc(-n2nc(C(F)(F)F)cc2-c2ccc(Cl)cc2)cc1 [SC-236, 4-[5-(4-chlorophenyl)-3-(trifluoromethyl)-1H-pyrazol-1-yl]benzenesulfonamide]","+ (A plus sign in the table indicates a positive result, that is meeting the test for each cell line as indicated above as providing a positive result)","+ (A plus sign in the table indicates a positive result, that is meeting the test for each cell line as indicated above as providing a positive result)","+ (A plus sign in the table indicates a positive result, that is meeting the test for each cell line as indicated above as providing a positive result)",150%
Cc1ccc(-c2cc(C(F)(F)F)nn2-c2ccc(S(N)(=O)=O)cc2)cc1 [Celecoxib],"+ (A plus sign in the table indicates a positive result, that is meeting the test for each cell line as indicated above as providing a positive result)","+ (A plus sign in the table indicates a positive result, that is meeting the test for each cell line as indicated above as providing a positive result)","+ (A plus sign in the table indicates a positive result, that is meeting the test for each cell line as indicated above as providing a positive result)",
